The text below walks through data of patent US20240417410A1, “TRICYCLIC COMPOUNDS FOR THE TREATMENT OF CANCER” (Hoffmann-La Roche Inc., priority 2023, published 2024).

One data set deals with NCI-H358 (KRAS G12C). Description: Washout viability assay. The data set is classed as cell-based. The conditions noted are these: for IC50: Homo sapiens; for IC50 shift fold: washout vs no-washout. How it is done: (§1) Cancer cell lines NCI-H358, NCI-H2122, and SW480 (purchased from ATCC) were cultured in RPMI1640 (Thermo Fisher Scientific) medium plus 10% Fetal Bovine Serum (FBS, Thermo Fisher Scientific, 2.5 μg/mL puromycin and 1% Antibiotic-Antimycotic (Thermo Fisher Scientific) and plated at a density of 2,000 cells per well in 96-well assay plates (Corning-3699) and incubated overnight. On the assay day, compounds diluted to a final DMSO concentration of 0.5% were added to the wells. Following a 4-hour incubation period, the culture medium was removed, and the cells were washed three times with RPMI1640 medium only before being cultured in the abovementioned culture medium (RPMI1640+10% FBS+1% antibiotic-antimycotic). After 72 hours, a tenth of the volume of Cell Counting Kit-8 (Dojindo-CK04) was added to each well. The absorbance was measured (OD450 minus OD650) using an EnVision plate reader after a further 2-hour incubation. The IC50 values were calculated by applying a four-parameter sigmoidal concentration-response curve fit to the data.

The subject of the next data set is SW480 (KRAS G12V). Description: Washout viability assay. The data set is classed as cell-based. As to conditions: for IC50: Homo sapiens; for IC50 shift fold: washout vs no-washout. How it is done: as §1
The test system of the next data set is NCI-H2122 (KRAS G12C). Description: Washout viability assay. As to conditions: for IC50: Homo sapiens; for IC50 shift fold: washout vs no-washout. Type of data set: cell-based. As to the method:
as §1

Data set [1] is described as follows: Single dose pharmacokinetics (PK) study in female BALB/c mice. The data set is classed as in vivo, mouse. How it is done: The purpose of this study was to determine the pharmacokinetics of selected compounds following single intravenous bolus or oral gavage administration in female BALB/c mice. Briefly, two groups of female BALB/c mice (available from Shanghai Lingchang Biotechnology Co., Ltd) (N=3/group) were treated with a single dose of compound intravenously at 3 mg/kg (IV) or orally at 30 mg/kg (PO). Blood samples were collected at 5 min (only for IV), […], 30 min, 1 h, 2 h, 4 h, 7 h and 24 h post-dose. Blood samples were placed on ice until centrifugation to obtain plasma samples. The concentration of compound in plasma samples was determined using LC-MS/MS method. The pharmacokinetic parameters were calculated by non-compartmental analysis.

Data set [2] concerns panel of 119 human cancer cell lines with RAS mutations or amplifications. Description: Cell proliferation analysis, panel of 119 human cancer cell lines. The data set is classed as cell-based. As to conditions: RAS addicted cell panels (n=119), read-out: median IC50. As to the method: The objective of this study was to evaluate the extent and degree to which Example 24 or A122 inhibits cell proliferation in a panel of 119 human cancer cell lines with RAS mutations or amplifications across various histological subtypes.
On Day-1, cells were plated in 384-well round-bottom ultra-low adhesion plates (cat. Corning 3830, with cell density adjusted according to Table 3. The assay plate was then centrifuged at 1000 rpm for 1 minute to ensure even distribution of cells. The plate was incubated at 37° C. in a 5% CO2 atmosphere (It is worth noting that for SW1271 cell plate, it needs to be incubated in an incubator without additional CO2).
On Day 0, Example 24 or A122 was added to each well using a Tecan HP D300E dispenser, with a 3-fold dilution across 9 doses. The final concentration of DMSO was normalized to 0.2%. The assay plate was then centrifuged at 1000 rpm for 1 minute and incubated for 7 days.
On Day 7, CellTiter-Glo (CTG) 3D reagent (Promega G9683) was dispensed into each well of a 384-well plate using a multi-drop dispenser (Thermo Scientific 66413). […]
For data analysis, the XL-fit software (Supplier: ID Business Solutions Ltd., Software version: XL fit 5.0) was utilized. The percentage of inhibition was calculated using the formula: Inhibition %=(Max-Sample value)/(Max-Min)×100. […]

For a further data set, the system named is SHP-77 xenograft tumor. Description: SHP-77 SCLC xenograft efficacy study. The conditions noted are these: for mean tumor growth inhibition (TGI): daily 30 mg/kg p.o., 14 days treatment, SHP-77 xenograft. The data set is classed as in vivo. The source says:
The purpose of the study was to assess the anti-tumor activity in difficult KRAS mutated xenograft tumor model using SHP-77 (small cell lung cancer, SCLC; ATCC CRL-2195) by examining the time-dependent effects on MAPK pathway modulation and tumor suppression post-administration of Example 24 and reference compound A122.
Female CB17-SCID mice at 6-8 weeks old from Vital River Co., LTD. were used for these studies. In order to generate subcutaneous xenograft tumors, each mouse was inoculated at the right flank with tumor cells in 100 μL of PBS and Matrigel matrix in the right hind flank with 1×10^7 cells. Mouse health was monitored daily, and caliper measurements began when tumors were palpable. Tumor volume measurements were determined utilizing the formula 0.5×L×W^2 in which L refers to length and W refers to width of each tumor. When tumors reached an average tumor volume of approximately 100-200 mm^3 for efficacy study and 300-500 mm^3 for single-dose PK/PD study, mice were randomized into treatment groups.
Mice were treated by oral gavage at 10 mg/kg with either vehicle consisting of DMSO: Solutol HS15: water=10:10:80 (% v/v/v) or compounds (Example 24, A122) in vehicle at indicated doses. For efficacy studies, animals were orally administered daily, tumor volumes and body weights were measured 3 times per week. Study day on efficacy plots indicates the day after which compound treatment was initiated. For single-dose PK/PD study, at the indicated time points after a single dose of Example 24 at the indicated dose levels, tumor samples were collected for PD analysis. RNA extraction and analysis of DUSP6 levels by in tumor tissue were performed as described in Example 134.

Setting [3] is: NCI-H358 (KRAS G12C), 4-hour treatment, three washes, 72 hours, read-out: Washout IC50.
The mark [4] stands for this setting: NCI-H358, KRAS (G12C), read-out: No-washout IC50.
[5] abbreviates: 4-hour treatment, three washes, 72 hours, read-out: Washout IC50.
The mark [6] stands for this setting: NCI-H2122 (KRAS G12C), 4-hour treatment, three washes, 72 hours, read-out: Washout IC50.
The mark [7] stands for this setting: NCI-H2122, KRAS (G12C), read-out: No-washout IC50.
Where [8] appears, read: 30 mg/kg, po, female BALB/c mice.

Read-outs that look alike come from different tables or passages of the source.

Turning to `CCn1c(-c2cc(N3CCN(C)CC3)cnc2[C@H](C)OC)c2c3cc(ccc31)-c1csc(n1)C[C@H](NC(=O)[C@H]1C[C@@H]1C)C(=O)N1CCC[C@H](N1)C(=O)OCC(C)(C)O2` [Example A122, reference compound], the IC50 in the data set on NCI-H358 (KRAS G12C) (setting [3]) turned out to be 32.1 nM; in the data set on NCI-H358 (KRAS G12C) (setting [4]), 2 nM; in the data set with SW480 (KRAS G12V) (setting [5]), 47.3 nM; with SW480 (KRAS G12V) (read-out: No-washout IC50) it was 2.4 nM; in the data set on NCI-H2122 (KRAS G12C) (setting [6]), 29 nM; with NCI-H2122 (KRAS G12C) (setting [7]), 8 nM. Moreover, the IC50 in data set [2] turned out to be 1.9 nM. Also, the results for the IC50 shift fold in the data set on NCI-H358 (KRAS G12C) (NCI-H358 (KRAS G12C)), in the data set on SW480 (KRAS G12V) and in the data set on NCI-H2122 (KRAS G12C) (NCI-H2122 (KRAS G12C)) were 16.2 fold, 19.7 fold and 3.6 fold, respectively. Further, the clearance in data set [1] (female, BALB/c, mouse, plasma, iv, 3 mg/kg, female BALB/c mice) amounted to 33.9 mL/min/kg. This compound also yielded an AUC(0-t) in data set [1] (female, BALB/c, mouse, plasma, po, 30 mg/kg, female BALB/c mice) of 9760 ng·h/mL. Further, the Cmax in data set [1] (female, BALB/c, mouse, plasma, po, 30 mg/kg, po, female BALB/c mice, read-out: Cmax) came out at 2530 ng/mL. In the data set on SHP-77 xenograft tumor, the “mean tumor growth inhibition (TGI)” value was determined as 43%.

As to `CO[C@@H](C)c1ncc(N2CCN(C)CC2)cc1-c1c2c3cc(cc4c3n1CCC4)-c1csc(n1)C[C@H](NC(=O)[C@H]1[C@H](C)[C@@H]1C)C(=O)N1CCC[C@H](N1)C(=O)OCC(C)(C)C2` (atropisomer, axis not shown; (M)) [Example 24, (1r,2R,3S)-N-[(7S,13S)-(20M)-20-[2-[(1S)-1-methoxyethyl]-5-(4-methylpiperazin-1-yl)-3-pyridyl]-17,17-dimethyl-8,14-dioxo-15-oxa-4-thia-9,21,30,31-tetrazahexacyclo[23.3.1.1^2,5.1^9,13.0^19,27.0^21,26]hentriaconta-1 (28),2,5 (31), 19,25 (29),26-hexaen-7-yl]-2,3-dimethyl-cyclopropanecarboxamide], the IC50 worked out at 5.9 nM in the data set on NCI-H358 (KRAS G12C) (setting [3]); 1 nM with NCI-H358 (KRAS G12C) (setting [4]); 8.4 nM with SW480 (KRAS G12V) (setting [5]); 1.3 nM with SW480 (KRAS G12V) (read-out: No-washout IC50); 9 nM in the data set on NCI-H2122 (KRAS G12C) (setting [6]); 6.7 nM in the data set on NCI-H2122 (KRAS G12C) (setting [7]). In data set [2], the IC50 is 0.95 nM. The values for the IC50 shift fold in the data set on NCI-H358 (KRAS G12C) (NCI-H358 (KRAS G12C)), in the data set with SW480 (KRAS G12V) and with NCI-H2122 (KRAS G12C) (NCI-H2122 (KRAS G12C)) were 5.6 fold, 6.7 fold and 1.3 fold, respectively. In data set [1] (3 mg/kg, iv, female BALB/c mice), this compound had a CL of 5.3 mL/min/kg. Also, the AUC0-last in data set [1] (setting [8]) stood at 57240 ng·h/mL. This compound gave a Cmax in data set [1] (setting [8]) of 10498 ng/mL. Moreover, in data set [1] (30 mg/kg, po, mouse), the “fold increase in AUC0-last compared with compound A122” value stood at 6 fold. Also, in data set [1] (30 mg/kg, po, mouse), the “fold increase in AUC0-last compared with compound A252” value stood at 4 fold. Besides, the “fold increase in Cmax compared with compound A122” value in data set [1] (30 mg/kg, po, mouse) is recorded as ~4 fold. Besides, in data set [1] (30 mg/kg, po, mouse), the “fold increase in Cmax compared with compound A252” value is given as 4.3 fold. In addition, the “mean tumor growth inhibition (TGI)” value in the data set on SHP-77 xenograft tumor turned out to be 70%. For the same compound, in the data set with SHP-77 xenograft tumor (daily administration at 30 mg/kg, SHP-77 xenograft mice), the “tolerability based on body weights” value is on record as “well-tolerated”.
